Values quoted from earlier work in patent US20240115494A1, “ENCAPSULATED COMPOSITIONS AND METHOD OF USE - AFFECTING SATIETY” (Nutragenom, LLC, priority 2021, published 2024).

Details: 100% glycerol, quoted for comparison

In the case of `OCC(O)CO` [100% glycerol, glycerol], the “Viscosity (comparison value)” value is listed as 4,000 mPa·s.
